# Where two headings read alike, the source gives them in different places.
# Legend:
# [1] = biological target: human KHK-C (Homo sapiens (Human), UniProt P50053); experiment: KHK Biochemical Assay (IC50), ADP-Glo, KHK-C; settings: ADP-Glo; average of at least two separate assays
# Method in brief: (§1)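 ADP-Glo luminescence measured ADP made over a 4 h room-temperature reaction of ATP plus fructose, started after 30 min compound–enzyme pre-incubation. Buffer: 50 mM Hepes pH 7.4, 140 mM KCl, 5 mM MgCl2, 0.01% Triton-X. Enzyme was His-tagged, BL21 (DE3)-expressed, Ni-NTA-purified; compounds in 1:3 DMSO dilution series.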
# [2] = biological target: human KHK-A (Homo sapiens (Human), UniProt P50053); experiment: KHK Biochemical Assay (IC50), ADP-Glo, KHK-A; settings: ADP-Glo; average of at least two separate assays
# Method in brief: as §1
# [3] = biological target: KHK-C expressed in NRK-52E cells (Homo sapiens (Human), UniProt P50053); experiment: KHK-C Cell-based Assay (EC50), NRK CTG, fructose-mediated ATP-depletion
# KHK-C expressed in NRK-52E cells, sequence (P50053 whole entry): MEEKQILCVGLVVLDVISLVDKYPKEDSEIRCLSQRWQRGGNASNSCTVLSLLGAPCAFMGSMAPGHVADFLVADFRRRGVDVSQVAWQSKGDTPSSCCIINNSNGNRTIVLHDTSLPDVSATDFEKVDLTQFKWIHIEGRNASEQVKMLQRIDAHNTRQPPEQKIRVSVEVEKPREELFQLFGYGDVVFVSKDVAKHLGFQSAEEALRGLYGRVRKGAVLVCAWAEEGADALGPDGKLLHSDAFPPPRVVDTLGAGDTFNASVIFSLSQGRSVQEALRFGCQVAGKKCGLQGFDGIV
# Method: Compounds were tested in a high-throughput 384-well assay format for their ability to attenuate fructose-mediated ATP-depletion in Normal Rat Kidney epithelial cells (NRK-52E) using the Cell-Titer Glo (CTG) assay, which measures cellular ATP levels based on luminescence signal by using the luciferase-luciferin system. Compounds were serially diluted (1:3) in DMSO.
# The plates were incubated at 37° C., 5% CO2 for one day. Cells were then transduced on day 2 with 200 MOI of Adenovirus (VQAd KHKC C-(K)-DYK ViraQuest Inc.) using the same medium and method as day-1 to induce KHK-C expression in the cells. Cells were incubated at 37° C., 5% CO2 for one day. On day-3, the medium was changed to DMEM medium (Corning, Catalog #10-014-CM) with 0.5% FBS and Penicillin-Streptomycin after washing the cells twice with sterile PBS on the BioTEK EL406 washer and dispenser. Test compounds were then diluted 200-fold into the assay plates using the BioMek FX and were incubated for 1 hour at 37° C., 5% CO2. 25 mM (final concentration) of fructose was then dispensed into the plates using the BioTEK EL406 dispenser and the plates were incubated at 37° C., 5% CO2 for 48 hours before addition of CTG reagent and measurement of luminescence signal.
# human KHK-A, sequence (P50053 other isoform, or with tags, fused parts or gaps): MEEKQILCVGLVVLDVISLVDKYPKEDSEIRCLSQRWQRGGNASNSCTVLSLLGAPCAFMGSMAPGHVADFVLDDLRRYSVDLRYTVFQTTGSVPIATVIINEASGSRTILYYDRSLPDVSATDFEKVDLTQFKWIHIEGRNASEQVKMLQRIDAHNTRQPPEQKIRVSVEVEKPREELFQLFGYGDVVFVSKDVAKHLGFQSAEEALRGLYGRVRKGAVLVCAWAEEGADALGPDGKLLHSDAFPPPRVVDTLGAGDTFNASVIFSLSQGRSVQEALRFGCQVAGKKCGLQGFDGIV
# human KHK-C, sequence (P50053 whole entry): as the sequence (P50053 whole entry) above
IC50 [1] [nM],IC50 [2] [nM],EC50 [3] [nM],"EC50 ([3]; read-out: NRK CTG EC50, NRK-52E cells, fructose-mediated ATP-depletion, Cell-Titer Glo) [nM]",Compound
15,18,29.8,–,"C[C@H]1CCN1c1nc2c(c(-c3ccc4c(c3)S(=O)(=O)NC4)n1)CCC2 [Example 72, (S)-6-(2-(2-methylazetidin-1-yl)-6,7-dihydro-5H-cyclopenta[d]pyrimidin-4-yl)-2,3-dihydrobenzo[d]isothiazole 1,1-dioxide]"
26.3,22.9,859,–,"C[C@H]1CCN1c1nc2c(c(-c3cccc(S(=O)(=O)NCC(=O)O)c3)n1)CCC2 [Example 74, (S)-((3-(2-(2-methylazetidin-1-yl)-6,7-dihydro-5H-cyclopenta[d]pyrimidin-4-yl)phenyl)sulfonyl)glycine]"
7.6,9.5,> 5000,–,"C[C@H]1CCN1c1nc2c(c(-c3cccc(NS(=O)(=O)CC(=O)O)c3)n1)CCC2 [Example 81, (S)-2-(N-(3-(2-(2-methylazetidin-1-yl)-6,7-dihydro-5H-cyclopenta[d]pyrimidin-4-yl)phenyl)sulfamoyl)acetic acid]"
14.9,14.9,> 5000,–,C[C@H]1[C@H](O)CN1c1nc2c(c(-c3cccc(NS(=O)(=O)CC(=O)O)c3)n1)CCC2 [Example 82]
10.3,32.5,> 5000,–,"C[C@H]1CCN1c1nc2c(c(-c3cccc(NS(=O)(=O)CCC(=O)O)c3)n1)CCC2 [Example 83, (S)-3-(N-(3-(2-(2-methylazetidin-1-yl)-6,7-dihydro-5H-cyclopenta[d]pyrimidin-4-yl)phenyl)sulfamoyl)propanoic acid]"
38.6,50.2,> 5000,–,"C[C@H]1CCN1c1nc2c(c(-c3ccc4c(c3)S(=O)(=O)NC4=O)n1)CCC2 [Example 86, (S)-6-(2-(2-methylazetidin-1-yl)-6,7-dihydro-5H-cyclopenta[d]pyrimidin-4-yl)benzo[d]isothiazol-3(2H)-one 1,1-dioxide]"
62.8,75.3,214,–,"C[C@H]1CCN1c1nc2c(c(-c3cccc(CS(C)(=O)=O)c3)n1)CCC2 [Example 88, (S)-2-(2-methylazetidin-1-yl)-4-(3-((methylsulfonyl)methyl)phenyl)-6,7-dihydro-5H-cyclopenta[d]pyrimidine]"
55.6,45.2,120,–,"C[C@H]1CCN1c1nc2c(c(-c3ccc(C(=O)NCCO)cc3)n1)CCC2 [Example 91, (S)—N-(2-hydroxyethyl)-4-(2-(2-methylazetidin-1-yl)-6,7-dihydro-5H-cyclopenta[d]pyrimidin-4-yl)benzamide]"
93,82.3,368,–,"NS(=O)(=O)c1cccc(-c2nc(N3CC[C@@H]3CO)nc3c2CCC3)c1 [Example 92, (R)-3-(2-(2-(hydroxymethyl)azetidin-1-yl)-6,7-dihydro-5H-cyclopenta[d]pyrimidin-4-yl)benzenesulfonamide]"
43.1,60.3,221,–,"NC(=O)c1ccc(-c2nc(N3CC[C@@H]3CO)nc3c2CCC3)cc1 [Example 95, (R)-4-(2-(2-(hydroxymethyl)azetidin-1-yl)-6,7-dihydro-5H-cyclopenta[d]pyrimidin-4-yl)benzamide]"
46.2,119,> 5000,–,"C[C@H]1CCN1c1nc2c(c(-c3ccc(-c4nnn[nH]4)cc3)n1)CCC2 [Example 104, (S)-4-(4-(1H-tetrazol-5-yl)phenyl)-2-(2-methylazetidin-1-yl)-6,7-dihydro-5H-cyclopenta[d]pyrimidine]"
126,148,–,209,C[C@@H]1CN(c2nc3c(c(-c4ccc(C(N)=O)cc4)n2)CCC3)[C@H]1C [Example 106]
1060,1550,2920,–,"C[C@H]1CN(c2nc3c(c(-c4ccc(C(N)=O)cc4)n2)CCC3)[C@H]1C [Example 107, 4-(2-((2S,3S)-2,3-dimethylazetidin-1-yl)-6,7-dihydro-5H-cyclopenta[d]pyrimidin-4-yl)benzamide]"
2.4,13.4,6.6,–,"C[C@H]1CCN1c1nc2c(c(-c3cn4cnc(C(N)=O)c4s3)n1)CCC2 [Example 119, (S)-2-(2-(2-methylazetidin-1-yl)-6,7-dihydro-5H-cyclopenta[d]pyrimidin-4-yl)imidazo[5,1-b]thiazole-7-carboxamide]"
41.8,44.5,51.8,–,"C[C@H]1CCN1c1nc2c(c(-c3ccc(F)c(S(N)(=O)=O)c3)n1)CCC2 [Example 122, (S)-2-fluoro-5-(2-(2-methylazetidin-1-yl)-6,7-dihydro-5H-cyclopenta[d]pyrimidin-4-yl)benzenesulfonamide]"
30.5,40.2,62.4,–,"Cc1ccc(-c2nc(N3CC[C@@H]3C)nc3c2CCC3)cc1S(N)(=O)=O [Example 123, (S)-2-methyl-5-(2-(2-methylazetidin-1-yl)-6,7-dihydro-5H-cyclopenta[d]pyrimidin-4-yl)benzenesulfonamide]"
328,535,973,–,"C[C@H]1CCN1c1nc2c(c(-c3ccc(C(N)=O)cc3)n1)CC2 [Example 124, (S)-4-(3-(2-methylazetidin-1-yl)-2,4-diazabicyclo[4.2.0]octa-1,3,5-trien-5-yl)benzamide]"
572,932,3560,–,C[C@H]1[C@H](O)CN1c1nc2c(c(-c3ccc(C(N)=O)cc3)n1)CC2 [Example 125]
400,406,253,–,"C[C@H]1CCN1c1nc2c(c(-c3ccc(OC(F)(F)F)c(S(N)(=O)=O)c3)n1)CCC2 [Example 126, (S)-5-(2-(2-methylazetidin-1-yl)-6,7-dihydro-5H-cyclopenta[d]pyrimidin-4-yl)-2-(trifluoromethoxy)benzenesulfonamide]"
65.5,99.6,223,–,"C[C@H]1CCN1c1nc2c(c(-c3ccc(C4(O)COC4)cc3)n1)CCC2 [Example 127, (S)-3-(4-(2-(2-methylazetidin-1-yl)-6,7-dihydro-5H-cyclopenta[d]pyrimidin-4-yl)phenyl)oxetan-3-ol]"
2.3,2.3,6.3,–,"C[C@H]1CCN1c1nc(-c2ccc(C(N)=O)cc2)c2c(n1)C(F)(F)CC2 [Example 128, (S)-4-(7,7-difluoro-2-(2-methylazetidin-1-yl)-6,7-dihydro-5H-cyclopenta[d]pyrimidin-4-yl)benzamide]"
> 5000,> 5000,> 5000,–,"C[C@H]1CCN1c1nc2c(c(-c3cc(S(N)(=O)=O)c(F)cc3F)n1)CCC2 [Example 130, (S)-2,4-difluoro-5-(2-(2-methylazetidin-1-yl)-6,7-dihydro-5H-cyclopenta[d]pyrimidin-4-yl)benzenesulfonamide]"
71.8,97.6,131,–,"C[C@H]1CCN1c1nc2c(c(-c3ccc4ccc(=O)[nH]c4c3)n1)CCC2 [Example 132, (S)-7-(2-(2-methylazetidin-1-yl)-6,7-dihydro-5H-cyclopenta[d]pyrimidin-4-yl)quinolin-2(1H)-one]"
141,236,> 5000,–,"C[C@H]1CCN1c1nc2c(c(-c3ccc4ccc(=O)n(CCC(=O)O)c4c3)n1)CCC2 [Example 133, (S)-3-(7-(2-(2-methylazetidin-1-yl)-6,7-dihydro-5H-cyclopenta[d]pyrimidin-4-yl)-2-oxoquinolin-1(2H)-yl)propanoic acid]"
89.9,158,1030,–,"C[C@H]1CCN1c1nc2c(c(-c3ccc4c(c3)CC(CC(=O)O)C4)n1)CCC2 (stereo partly drawn) [Example 134, 2-(5-(2-((S)-2-methylazetidin-1-yl)-6,7-dihydro-5H-cyclopenta[d]pyrimidin-4-yl)-2,3-dihydro-1H-inden-2-yl)acetic acid]"
111,126,277,–,"C[C@H]1CCN1c1nc2c(c(-c3ccc4c(c3)CC(CC(N)=O)C4)n1)CCC2 (stereo partly drawn) [Example 135, 2-(5-(2-((S)-2-methylazetidin-1-yl)-6,7-dihydro-5H-cyclopenta[d]pyrimidin-4-yl)-2,3-dihydro-1H-inden-2-yl)acetamide]"
55.3,85.8,2490,–,"C[C@H]1CCN1c1nc2c(c(-c3ccc4c(c3)CC(C(=O)O)C4)n1)CCC2 (stereo partly drawn) [Example 139, 5-(2-((S)-2-methylazetidin-1-yl)-6,7-dihydro-5H-cyclopenta[d]pyrimidin-4-yl)-2,3-dihydro-1H-indene-2-carboxylic acid]"
52.8,28.1,163,–,"C[C@H]1CCN1c1nc2c(c(-c3ccc4c(c3)CC(C(N)=O)C4)n1)CCC2 (stereo partly drawn) [Example 140, 5-(2-((S)-2-methylazetidin-1-yl)-6,7-dihydro-5H-cyclopenta[d]pyrimidin-4-yl)-2,3-dihydro-1H-indene-2-carboxamide]"
290,334,1260,–,C[C@@H]1N(c2nc3c(c(-c4ccc(C(N)=O)cc4)n2)CCC3)C[C@@]1(C)O [Example 141]

Compound,IC50 [1] [nM],IC50 [2] [nM],EC50 [3] [nM],"EC50 ([3]; read-out: NRK CTG EC50, NRK-52E cells, fructose-mediated ATP-depletion, Cell-Titer Glo) [nM]"
"C[C@H]1CCN1c1nc2c(c(-c3ccc4c(c3)CC3C(C(=O)O)C43)n1)CCC2 (stereo partly drawn) [Example 136, 4-(2-((S)-2-methylazetidin-1-yl)-6,7-dihydro-5H-cyclopenta[d]pyrimidin-4-yl)-1,1a,6,6a-tetrahydrocyclopropa[a]indene-1-carboxylic acid]",62,114,2460,–
